Measurements reported in patent US20090131431A1, “Pyrazolo[3,4-b]pyridine compounds, and their use as a PDE4 inhibitors” (priority 2005, published 2009).

These molecules were tested against T1, PDE4B (human recombinant) (Homo sapiens, UniProt Q07343) (assay: Inhibition of PDE4B activity: SPA and/or Fluorescence Polarisation (FP) assay). Details: one reading (n=1) or average of 2 or more readings, read-out: PDE4B pIC50 (±about 0.5) (converted).
T1 construct: made in house
Type: biochemical
Description: The ability of compounds to inhibit catalytic activity at PDE4B or 4D (human recombinant), PDE3 (from bovine aorta), PDE5 (human recombinant) or PDE6 (from bovine retina) can optionally be determined by Scintillation Proximity Assay (SPA) in a 96-well format.
The enzyme concentration is adjusted so that no more than 20% hydrolysis of the substrate defined below occurs in control wells without compound, during the incubation. For the PDE3, PDE4B and PDE4D assays, [5′,8-3H]Adenosine 3′,5′-cyclic phosphate (Amersham Pharmacia Biotech, code TRK.559; or Amersham Biosciences UK Ltd, Pollards Wood, Chalfont St Giles, Buckinghamshire HP8 4SP, UK) is added to give 0.05 uCi per well and about 10 nM final concentration. […] Plates containing assay mixture, suitably approx. 100 ul volume of assay mixture, are mixed on an orbital shaker for 5 minutes and incubated at ambient temperature for 1 hour. Phosphodiesterase SPA beads (Amersham Pharmacia Biotech, code RPNQ 0150) are added (about 1 mg per well) to terminate the assay. Plates are sealed and shaken and allowed to stand at ambient temperature for 35 minutes to 1 hour (suitably 35 minutes) to allow the beads to settle. […] Curves are analysed using ActivityBase and XLfit (ID Business Solutions Limited, 2 Ocean Court, Surrey Research Park, Guildford, Surrey GU2 7QB, United Kingdom). Results are expressed as pIC50 values.
The ability of compounds to inhibit catalytic activity at PDE4B (human recombinant) or PDE4D (human recombinant) can optionally be determined by IMAP Fluorescence Polarisation (FP) assay (IMAP Explorer kit, available from Molecular Devices Corporation, Sunnydale, Calif., USA; Molecular Devices code: R8062) in 384-well format.
The IMAP FP assay is able to measure PDE activity in an homogenous, non-radioactive assay format. The FP assay uses the ability of immobilised trivalent metal cations, coated onto nanoparticles (tiny beads), to bind the phosphate group of Fl-AMP that is produced on the hydrolysis of fluorescein-labelled (Fl) cyclic adenosine mono-phosphate (Fl-cAMP) to the non-cyclic Fl-AMP form. […] Binding of Fl-AMP product to the beads (coated with the immobilised trivalent cations) slows the rotation of the bound Fl-AMP and leads to an increase in the fluorescence polarisation ratio of parallel to perpendicular light. Inhibition of the PDE reduces/inhibits this signal increase.
The enzyme level is set by experimentation so that reaction is linear throughout the incubation. Fluorescein adenosine 3′,5′-cyclic phosphate (from Molecular Devices Corporation, Molecular Devices code: R7091) is added to give about 40 nM final concentration (final assay volume usually ca. 20-40 ul, suitably ca. 20 ul). Plates are mixed on an orbital shaker for 10 seconds and incubated at ambient temperature for 40 minutes. IMAP binding reagent (as described above, from Molecular Devices Corporation, Molecular Devices code: R7207) is added (60 ul of a 1 in 400 dilution in binding buffer of the kit stock solution) to terminate the assay. Plates are allowed to stand at ambient temperature for 1 hour. The Fluorescence Polarisation (FP) ratio of parallel to perpendicular light is measured using an Analyst™ plate reader (from Molecular Devices Corporation). […] Curves are analysed using ActivityBase and XLfit (ID Business Solutions Limited, 2 Ocean Court, Surrey Research Park, Guildford, Surrey GU2 7QB, United Kingdom). Results are expressed as plC50 values.

T1 sequence (Q07343 1-564 isoform Q07343-2): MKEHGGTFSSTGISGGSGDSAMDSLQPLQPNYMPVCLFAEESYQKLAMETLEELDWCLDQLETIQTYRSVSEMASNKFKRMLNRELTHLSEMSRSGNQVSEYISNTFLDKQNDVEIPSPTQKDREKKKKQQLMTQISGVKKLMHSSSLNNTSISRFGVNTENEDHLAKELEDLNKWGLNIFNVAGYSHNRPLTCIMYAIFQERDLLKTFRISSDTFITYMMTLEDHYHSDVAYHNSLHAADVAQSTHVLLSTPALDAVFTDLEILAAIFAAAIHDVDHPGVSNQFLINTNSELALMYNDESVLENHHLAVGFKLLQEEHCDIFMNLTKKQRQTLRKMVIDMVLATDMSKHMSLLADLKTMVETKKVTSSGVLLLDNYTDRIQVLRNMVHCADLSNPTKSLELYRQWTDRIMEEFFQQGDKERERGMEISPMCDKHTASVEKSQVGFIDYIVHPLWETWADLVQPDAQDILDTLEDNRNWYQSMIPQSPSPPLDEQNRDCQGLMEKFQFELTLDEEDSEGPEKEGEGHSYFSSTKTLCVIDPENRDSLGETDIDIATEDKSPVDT

Row | IC50 [nM] | Structure (SMILES)
1 | 0.01 to 0.1 | CCc1nc2c(cnn2CC)c(NC2CCOCC2)c1CNC(=O)c1ccc2c(c1)CCC2 [Example 176, N-{[1,6-diethyl-4-(tetrahydro-2H-pyran-4-ylamino)-1H-pyrazolo[3,4-b]pyridin-5-yl]methyl}-2,3-dihydro-1H-indene-5-carboxamide]
2 | 0.126 to 1 | CCc1nc2c(cnn2CC)c(NC2CCOCC2)c1CNC(=O)c1ccc2c(c1)CCCC2 [Example 177, N-{[1,6-diethyl-4-(tetrahydro-2H-pyran-4-ylamino)-1H-pyrazolo[3,4-b]pyridin-5-yl]methyl}-5,6,7,8-tetrahydro-2-naphthalenecarboxamide]
3 | 0.01 to 0.1 | CCc1nc2c(cnn2CC)c(NC2CCOCC2)c1CNC(=O)c1ccc(N2CCCC2=O)cc1 [Example 178, N-{[1,6-diethyl-4-(tetrahydro-2H-pyran-4-ylamino)-1H-pyrazolo[3,4-b]pyridin-5-yl]methyl}-4-(2-oxo-1-pyrrolidinyl)benzamide]
4 | 0.01 to 0.1 | CCc1nc2c(cnn2CC)c(NC2CCOCC2)c1CNC(=O)c1cc(S(=O)(=O)c2ccccc2)ccc1OC [Example 179, N-{[1,6-diethyl-4-(tetrahydro-2H-pyran-4-ylamino)-1H-pyrazolo[3,4-b]pyridin-5-yl]methyl}-2-(methyloxy)-5-(phenylsulfonyl)benzamide]
5 | 0.01 to 0.1 | CCc1nc2c(cnn2CC)c(NC2CCOCC2)c1CNC(=O)c1ccc(N2CCOCC2)cc1 [Example 180, N-{[1,6-diethyl-4-(tetrahydro-2H-pyran-4-ylamino)-1H-pyrazolo[3,4-b]pyridin-5-yl]methyl}-4-(4-morpholinyl)benzamide]
6 | 0.01 to 0.1 | CCc1nc2c(cnn2CC)c(NC2CCOCC2)c1CNC(=O)c1cc(C(=O)N(C)c2ccccc2)ccc1OC [Example 182, N˜3˜-{[1,6-diethyl-4-(tetrahydro-2H-pyran-4-ylamino)-1H-pyrazolo[3,4-b]pyridin-5-yl]methyl}-N˜1˜-methyl-4-(methyloxy)-N-˜1˜-phenyl-1,3-benzenedicarboxamide]
7 | 0.01 to 0.1 | CCc1nc2c(cnn2CC)c(NC2CCOCC2)c1CNC(=O)c1cc(S(=O)(=O)NCC2CC2)ccc1OC [Example 183, 5-{[(cyclopropylmethyl)amino]sulfonyl}-N-{[1,6-diethyl-4-(tetrahydro-2H-pyran-4-ylamino)-1H-pyrazolo[3,4-b]pyridin-5-yl]methyl}-2-(methyloxy)benzamide]
8 | 0.01 to 0.1 | CCc1nc2c(cnn2CC)c(NC2CCOCC2)c1CNC(=O)c1ccc(C2CCCC2)cc1 [Example 184, 4-cyclopentyl-N-{[1,6-diethyl-4-(tetrahydro-2H-pyran-4-ylamino)-1H-pyrazolo[3,4-b]pyridin-5-yl]methyl}benzamide]
9 | 0.01 to 0.1 | CCc1nc2c(cnn2CC)c(NC2CCOCC2)c1CNC(=O)c1cc(S(=O)(=O)N(CC)CC)ccc1OC [Example 185, 5-[(diethylamino)sulfonyl]-N-{[1,6-diethyl-4-(tetrahydro-2H-pyran-4-ylamino)-1H-pyrazolo[3,4-b]pyridin-5-yl]methyl}-2-(methyloxy)benzamide]
10 | 0.01 to 0.1 | CCc1nc2c(cnn2CC)c(NC2CCOCC2)c1CNC(=O)c1cc(S(=O)(=O)NC2CCC2)ccc1OC [Example 186, 5-[(cyclobutylamino)sulfonyl]-N-{[1,6-diethyl-4-(tetrahydro-2H-pyran-4-ylamino)-1H-pyrazolo[3,4-b]pyridin-5-yl]methyl}-2-(methyloxy)benzamide]
11 | 0.126 to 1 | CCc1nc2c(cnn2CC)c(NC2CCOCC2)c1CNC(=O)c1ccc(N2CCCCCCC2)cc1 [Example 187, N-{[1,6-diethyl-4-(tetrahydro-2H-pyran-4-ylamino)-1H-pyrazolo[3,4-b]pyridin-5-yl]methyl}-4-(hexahydro-1(2H)-azocinyl)benzamide]
12 | 0.01 to 0.1 | CCc1nc2c(cnn2CC)c(NC2CCOCC2)c1CNC(=O)c1cc(C#N)c(C(C)C)cc1OC [Example 188, 5-cyano-N-{[1,6-diethyl-4-(tetrahydro-2H-pyran-4-ylamino)-1H-pyrazolo[3,4-b]pyridin-5-yl]methyl}-4-(1-methylethyl)-2-(methyloxy)benzamide]
